Reference: PubChem BioAssay AID248 (DTP/NCI, 2004)
Where “and” joins values, the source holds several entries; their conditions need not be identical. Equal values may be shown once. Inconclusive results and toxic doses are left out. No stated cut-off is given here; in the data, active means T/C of 150% or more; inactive means T/C below 125%.

Test system: L1210 leukemia ip in BDF1 mice, survival T/C
Test: NCI In Vivo Anticancer Drug Screen. Data for tumor model L1210 Leukemia (intraperitoneal) in B6D2F1 (BDF1) mice
Settings: endpoint: mean survival time, higher = longer survival
How it was run: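 Tumor cells were implanted, animals were treated, and survival was followed. The result divides the treated measurement by the vehicle-control measurement.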

[1] = dose: 100.0 mg/kg/injection, schedule: Q01DX009 (ip), vehicle: saline with Tween-80
[2] = dose: 100.0 mg/kg/injection, schedule: Q04DX003 (ip), vehicle: saline with Tween-80
[3] = dose: 200.0 mg/kg/injection, schedule: Q01DX009 (ip), vehicle: saline with Tween-80
[4] = dose: 200.0 mg/kg/injection, schedule: Q04DX003 (ip), vehicle: saline with Tween-80
[5] = dose: 400.0 mg/kg/injection, schedule: Q01DX009 (ip), vehicle: saline with Tween-80
[6] = dose: 400.0 mg/kg/injection, schedule: Q04DX003 (ip), vehicle: saline with Tween-80
[7] = dose: 100.0 mg/kg/injection, schedule: Q04DX003 (ip), vehicle: Klucel (hydroxypropylcellulose) (HPC)
[8] = dose: 100.0 mg/kg/injection, schedule: Q01DX009 (ip), vehicle: Klucel (hydroxypropylcellulose) (HPC)
[9] = dose: 200.0 mg/kg/injection, schedule: Q01DX009 (ip), vehicle: Klucel (hydroxypropylcellulose) (HPC)
[10] = dose: 200.0 mg/kg/injection, schedule: Q04DX003 (ip), vehicle: Klucel (hydroxypropylcellulose) (HPC)
[11] = dose: 75.0 mg/kg/injection, schedule: Q01DX001 (ip), vehicle: saline
[12] = dose: 150.0 mg/kg/injection, schedule: Q01DX001 (ip), vehicle: saline
[13] = dose: 400.0 mg/kg/injection, schedule: Q01DX009 (ip), vehicle: Klucel (hydroxypropylcellulose) (HPC)
[14] = dose: 400.0 mg/kg/injection, schedule: Q04DX003 (ip), vehicle: Klucel (hydroxypropylcellulose) (HPC)
[15] = dose: 100.0 mg/kg/injection, schedule: Q04DX002 (ip), vehicle: Klucel (hydroxypropylcellulose) (HPC)

Measured: T/C

NC(=O)c1csc(CCNC(=O)c2ccccc2)n1
inactive: dose: 100.0 mg/kg/injection, schedule: Q01DX001 (ip), vehicle: saline with Tween-80 100 % of control | [1] 100 % of control | [2] 95 % of control | dose: 200.0 mg/kg/injection, schedule: Q01DX001 (ip), vehicle: saline with Tween-80 102 % of control | [3] 100 % of control | [4] 103 % of control | dose: 400.0 mg/kg/injection, schedule: Q01DX001 (ip), vehicle: saline with Tween-80 104 % of control | [5] 89 % of control | [6] 101 % of control

COC1(c2ccc([N+](=O)[O-])o2)OC1(C)C (configuration not stated)
inactive: [1] 98 % of control | [2] 113 % of control | [3] 95 % of control | [4] 109 % of control | [6] 96 % of control

C[n+]1cc2c3ccccc3c(N)cc2c2ccccc21
inactive: dose: 6.25 mg/kg/injection, schedule: Q01DX009 (ip), vehicle: water 114 % of control | dose: 12.5 mg/kg/injection, schedule: Q01DX009 (ip), vehicle: water 118 % of control | dose: 25.0 mg/kg/injection, schedule: Q01DX009 (ip), vehicle: water 117 % of control | dose: 25.0 mg/kg/injection, schedule: Q04DX003 (ip), vehicle: water 118 % of control | dose: 50.0 mg/kg/injection, schedule: Q01DX009 (ip), vehicle: water 90 % of control | dose: 50.0 mg/kg/injection, schedule: Q04DX003 (ip), vehicle: water 98 % of control | dose: 100.0 mg/kg/injection, schedule: Q04DX003 (ip), vehicle: water 93 % of control and 107 % of control

O=C(CCN1CC1)NCCc1ccccc1
inactive: dose: 20.0 mg/kg/injection, schedule: Q04DX003 (ip), vehicle: Klucel (hydroxypropylcellulose) (HPC) 92 % of control | dose: 40.0 mg/kg/injection, schedule: Q04DX003 (ip), vehicle: Klucel (hydroxypropylcellulose) (HPC) 95 % of control | [7] 86 % of control

C=CC1CN2CCC1CC2C(O)c1ccnc2ccccc12 (configuration not stated)
inactive: dose: 100.0 mg/kg/injection, schedule: Q01DX009 (ip), vehicle: gum acacia 107 % of control | dose: 200.0 mg/kg/injection, schedule: Q01DX009 (ip), vehicle: gum acacia 105 % of control

O=C(O)c1cc2ccccc2s1
inactive: dose: 50.0 mg/kg/injection, schedule: Q01DX009 (ip), vehicle: Klucel (hydroxypropylcellulose) (HPC) 98 % of control | [8] 101 % of control | [7] 102 % of control | [9] 95 % of control | [10] 94 % of control

NC(C(=O)c1ccccc1)c1ccccc1.[Cl][Sn][Cl] (configuration not stated)
inactive: [11] 102 % of control | [12] 117 % of control

O=[N+]([O-])c1ccc(OCC2CO2)cc1 (configuration not stated)
inactive: dose: 100.0 mg/kg/injection, schedule: Q04DX002 (ip), vehicle: gum acacia 100 % of control | dose: 200.0 mg/kg/injection, schedule: Q04DX002 (ip), vehicle: gum acacia 117 % of control | dose: 400.0 mg/kg/injection, schedule: Q04DX002 (ip), vehicle: gum acacia 88 % of control

Cn1cnc(N)c1C(N)=S
inactive: dose: 100.0 mg/kg/injection, schedule: Q04DX003 (ip), vehicle: saline 100 % of control | [9] 98 % of control | dose: 200.0 mg/kg/injection, schedule: Q04DX003 (ip), vehicle: saline 92 % of control | [13] 92 % of control | dose: 400.0 mg/kg/injection, schedule: Q04DX003 (ip), vehicle: saline 104 % of control

c1ccc(-c2nc(N3CCOCC3)nc3ccccc23)cc1
inactive: [1] 94 % of control | [3] 90 % of control

CCCCOC(=O)c1ccc2c(ccc[n+]2C)c1
inactive: [11] 95 % of control | dose: 75.0 mg/kg/injection, schedule: Q04DX003 (ip), vehicle: saline 112 % of control | [12] 101 % of control | dose: 150.0 mg/kg/injection, schedule: Q04DX003 (ip), vehicle: saline 105 % of control | dose: 300.0 mg/kg/injection, schedule: Q01DX001 (ip), vehicle: saline 100 % of control | dose: 300.0 mg/kg/injection, schedule: Q04DX003 (ip), vehicle: saline 96 % of control

CSc1nc(N)nc2c1nnn2C1OC(CO)C(O)C1O (configuration not stated)
inactive: dose: 100.0 mg/kg/injection, schedule: Q01DX001 (ip), vehicle: saline 105 % of control | dose: 200.0 mg/kg/injection, schedule: Q01DX001 (ip), vehicle: saline 105 % of control

CCCCn1cccc1
inactive: [2] 106 % of control | [4] 95 % of control

CC1C=CC(C)C(C(=O)c2ccccc2)C1C(=O)c1ccccc1 (configuration not stated)
inactive: [8] 93 % of control | [1] 106 % of control | [7] 89 % of control | [9] 94 % of control | [3] 97 % of control | [10] 88 % of control | [13] 92 % of control | [5] 93 % of control | [14] 88 % of control

CC(C)C1CCC(NC(=O)NCCF)CC1 (configuration not stated)
inactive: dose: 9.5 mg/kg/injection, schedule: Q01DX001 (ip), vehicle: other 105 % of control | dose: 19.0 mg/kg/injection, schedule: Q01DX001 (ip), vehicle: other 100 % of control | dose: 38.0 mg/kg/injection, schedule: Q01DX001 (ip), vehicle: other 102 % of control

C=C1CC(c2ccc(S(=O)(=O)N3CCOCC3)cc2)OC1=O (configuration not stated)
inactive: dose: 1.56 mg/kg/injection, schedule: Q01DX009 (ip), vehicle: Klucel (hydroxypropylcellulose) (HPC) 94 % of control | dose: 3.12 mg/kg/injection, schedule: Q01DX009 (ip), vehicle: Klucel (hydroxypropylcellulose) (HPC) 106 % of control | dose: 6.25 mg/kg/injection, schedule: Q01DX009 (ip), vehicle: Klucel (hydroxypropylcellulose) (HPC) 106 % of control | dose: 12.5 mg/kg/injection, schedule: Q01DX009 (ip), vehicle: Klucel (hydroxypropylcellulose) (HPC) 105 % of control | dose: 25.0 mg/kg/injection, schedule: Q01DX009 (ip), vehicle: Klucel (hydroxypropylcellulose) (HPC) 93 % of control | [15] 95 % of control | dose: 200.0 mg/kg/injection, schedule: Q04DX002 (ip), vehicle: Klucel (hydroxypropylcellulose) (HPC) 113 % of control

Cc1ccc(NC(=S)NNC(=S)NNc2ccccc2)cc1C
inactive: [8] 90 % of control | [2] 89 % of control | [9] 102 % of control | [4] 93 % of control | [13] 103 % of control | [6] 91 % of control

O=[N+]([O-])c1ccc(OCCNS(=O)(=O)c2cccc(S(=O)(=O)F)c2)c(Cl)c1
inactive: [1] 104 % of control | [2] 97 % of control | [3] 88 % of control | [4] 95 % of control | [5] 90 % of control | [6] 101 % of control

CCCCN(C)/N=N/c1nn[nH]n1
inactive: [15] 92 % of control | dose: 400.0 mg/kg/injection, schedule: Q04DX002 (ip), vehicle: Klucel (hydroxypropylcellulose) (HPC) 113 % of control

CSc1cccc(/C=C\c2ccc([N+](=O)[O-])cc2)c1
inactive: [8] 101 % of control | [7] 94 % of control | [9] 100 % of control | [10] 94 % of control | [13] 88 % of control | [14] 96 % of control
